{
  "source": "patent US20230285287A1",
  "about": "“PHARMACEUTICAL COMPOSITIONS” (DOUGLAS PHARMACEUTICALS LIMITED, priority 2019, published 2023)",
  "origin": "cited, not measured here",
  "conditions": "known from the literature (Donato et al.)",
  "note": "“Also recorded” adds a separate entry of the source.",
  "data": [
    {"compound": "CC(C)c1nc(CN(C)C(=O)N[C@H](C(=O)N[C@@H](Cc2ccccc2)C[C@H](O)[C@H](Cc2ccccc2)NC(=O)OCc2cncs2)C(C)C)cs1", "note": "[Ritonavir, 1,3-thiazol-5-ylmethyl N-[(2S,3S,5S)-3-hydroxy-5-[[(2S)-3-methyl-2-[[methyl-[(2-propan-2-yl-1,3-thiazol-4-yl)methyl]carbamoyl]amino]butanoyl]amino]-1,6-diphenylhexan-2-yl]carbamate]", "values": [
      {"measurement": "chemical stability / degradation route", "value": "thermolytically driven; also recorded: particularly prone to hydrolysis; also recorded: oxygen labile"}
    ]}
  ]
}
